From patent publication US11053218B2, “3-(1-oxoisoindolin-2-yl)piperidine-2,6-dione derivatives and uses thereof” (Novartis AG, priority 2017, dated 2021)
Where two headings read alike, the source gives them in different places.

Key:
[1] = biological target: IKZF2 (Homo sapiens, UniProt Q96SW2+Q9UKS7); test: Prolabel quantification of IKZF2 protein levels in 293GT cells; assay type: cell-based
Protocol: (§1) The Prolabel system from DiscoverX was used to develop high-throughput and quantitative assays to measure changes in IKZF1, IKZF2 and GSPT1 protein levels in response to compounds. The prolabel tag was derived from the alpha fragment of beta galactosidase and has the following protein sequence: mssnslavvlqrrdwenpgvtqlnrlaahppfaswrnseeartdrpsqqlrslnge. The complementary fragment of beta-galactosidase (from DiscoverX), is added to the prolabel tag to form an active beta galactosidase enzyme whose activity can be precisely measured. In this way, the levels of a fusion protein with the prolabel tag can be quantified in cell lysates.
(§2) Lentiviral vectors, based on the Invitrogen pLenti6.2/V5 DEST backbone, were constructed that placed the prolabel tag upstream of IKZF1, IKZF2 or GSPT1 and expressed the fusion protein from a CMV promoter.
(§3) To ensure moderate and consistent expression of the prolabel fusion proteins across all cells in the population, stable cell lines were constructed from cells expressing a single copy of the construct. Lentivirus packaged with the constructs was made using the Virapower kit from Invitrogen.
(§4) The levels of prolabel tagged fusion proteins in compound treated cell lines were measured as follows:
(§5) Day 1, Cells were diluted to 1.0×10^6 cells/ml in normal growth medium. 17.5 μL of cells were plated in each well of a solid white 384 well plate. Plates were incubated overnight in a 37° C. tissue culture incubator.
(§6) Day 2, Serial dilutions of compounds were made in 384 well plates from 10 mM stocks. 15 μL of DMSO was added to each well of a 384 well plate. In the first column 15 μL of stock compound was added. The solution was mixed and 15 μL was transferred to the next column. This was repeated until 20 two-fold dilutions were prepared. 2.5 μL of diluted compounds were transferred into 60 μL of cell culture medium in another 384 well plate, and mixed well. 2.5 μL of this mixture was added to the plated cells. The final DMSO concentration was 0.5% and the highest concentration of compound was 50 μM. Plates were incubated overnight (e.g., about 14 h, 18 h, or 24 h) in a 37° C. tissue culture incubator.
(§7) Day 3, Plates were removed from the incubator and allowed to equilibrate at rt for 30 minutes. Prolabel substrate (DiscoverX PathHunter Prolabel Detection Kit, User manual: 93-0180) was added as described by the manufacturers protocols. Plates were incubated at rt for three hours and luminescence was read using an Envision reader (Perkin Elmer) Data was analyzed and visualized using the Spotfire software package.

[2] = biological target: IKZF1 (Homo sapiens, UniProt Q13422+Q96SW2); test: Prolabel quantification of IKZF1 protein levels in 293GT cells; assay type: cell-based; conditions: Prolabel assay, read-out: IKZF1 EC50
Chain of IKZF1 (Q13422 whole entry): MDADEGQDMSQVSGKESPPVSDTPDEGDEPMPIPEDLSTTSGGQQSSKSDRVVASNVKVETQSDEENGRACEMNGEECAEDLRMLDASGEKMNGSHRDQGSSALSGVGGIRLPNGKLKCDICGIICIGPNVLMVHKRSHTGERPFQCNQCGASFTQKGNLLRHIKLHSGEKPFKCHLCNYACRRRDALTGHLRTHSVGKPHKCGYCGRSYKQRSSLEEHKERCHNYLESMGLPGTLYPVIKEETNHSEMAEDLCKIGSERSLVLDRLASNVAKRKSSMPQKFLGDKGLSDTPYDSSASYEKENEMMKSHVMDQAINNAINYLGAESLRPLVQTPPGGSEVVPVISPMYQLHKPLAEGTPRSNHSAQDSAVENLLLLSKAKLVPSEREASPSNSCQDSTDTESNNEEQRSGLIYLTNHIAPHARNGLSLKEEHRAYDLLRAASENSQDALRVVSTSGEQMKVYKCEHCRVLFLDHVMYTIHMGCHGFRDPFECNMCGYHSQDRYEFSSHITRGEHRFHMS
Chain of IKZF1 (Q96SW2 whole entry): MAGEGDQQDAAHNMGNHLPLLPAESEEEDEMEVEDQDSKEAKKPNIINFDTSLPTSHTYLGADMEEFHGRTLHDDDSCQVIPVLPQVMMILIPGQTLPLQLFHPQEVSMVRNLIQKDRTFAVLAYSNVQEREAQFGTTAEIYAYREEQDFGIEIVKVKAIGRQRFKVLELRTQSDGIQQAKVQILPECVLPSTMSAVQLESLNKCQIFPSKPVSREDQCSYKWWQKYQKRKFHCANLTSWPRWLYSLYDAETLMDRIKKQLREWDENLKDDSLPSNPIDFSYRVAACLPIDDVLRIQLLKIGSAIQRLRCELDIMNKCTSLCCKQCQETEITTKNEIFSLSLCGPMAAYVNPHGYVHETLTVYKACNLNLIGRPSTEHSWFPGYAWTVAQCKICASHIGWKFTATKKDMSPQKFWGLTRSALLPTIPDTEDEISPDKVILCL
Chain of IKZF1 (Q16531 whole entry partner): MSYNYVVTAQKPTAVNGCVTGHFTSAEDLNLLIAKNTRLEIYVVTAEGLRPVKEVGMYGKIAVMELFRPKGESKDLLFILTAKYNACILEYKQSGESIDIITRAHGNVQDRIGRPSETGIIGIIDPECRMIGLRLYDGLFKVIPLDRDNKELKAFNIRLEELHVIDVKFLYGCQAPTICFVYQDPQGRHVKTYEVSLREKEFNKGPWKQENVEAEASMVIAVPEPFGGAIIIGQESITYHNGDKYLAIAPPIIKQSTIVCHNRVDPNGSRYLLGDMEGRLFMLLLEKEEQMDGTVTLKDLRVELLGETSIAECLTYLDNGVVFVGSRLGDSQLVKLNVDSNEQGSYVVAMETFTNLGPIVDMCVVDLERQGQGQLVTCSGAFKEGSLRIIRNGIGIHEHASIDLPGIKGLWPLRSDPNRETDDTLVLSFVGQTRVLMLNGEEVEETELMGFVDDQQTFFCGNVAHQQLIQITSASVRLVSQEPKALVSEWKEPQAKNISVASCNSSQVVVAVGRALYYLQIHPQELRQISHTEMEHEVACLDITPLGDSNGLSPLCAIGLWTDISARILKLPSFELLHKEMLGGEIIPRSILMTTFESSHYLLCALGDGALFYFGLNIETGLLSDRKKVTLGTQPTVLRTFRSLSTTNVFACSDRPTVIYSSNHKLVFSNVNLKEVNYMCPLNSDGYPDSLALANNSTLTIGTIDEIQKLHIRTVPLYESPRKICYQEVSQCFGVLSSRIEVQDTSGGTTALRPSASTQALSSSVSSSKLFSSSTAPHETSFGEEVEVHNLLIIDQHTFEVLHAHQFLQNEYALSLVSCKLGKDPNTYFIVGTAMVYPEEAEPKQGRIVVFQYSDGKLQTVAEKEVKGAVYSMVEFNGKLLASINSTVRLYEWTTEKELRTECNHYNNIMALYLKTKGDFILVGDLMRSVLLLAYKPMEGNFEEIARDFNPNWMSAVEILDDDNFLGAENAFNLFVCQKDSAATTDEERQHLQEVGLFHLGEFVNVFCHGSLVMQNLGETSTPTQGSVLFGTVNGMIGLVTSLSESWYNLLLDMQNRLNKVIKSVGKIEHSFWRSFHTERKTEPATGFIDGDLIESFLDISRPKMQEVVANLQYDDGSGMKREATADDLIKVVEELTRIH
Protocol: as §1, §2, §3, §4, §5, §6, §7

[3] = 24 h, 10 μM, 24 h, 293GT cells; read-out: IKZF2 % protein reduction at 10 μM, 24 h
[4] = Prolabel assay, 293GT cells; read-out: IKZF2 EC50
[5] = 10 μM, 24 h, 293GT cells; read-out: IKZF2 % protein reduction at 10 μM, 24 h

Chain of IKZF2 (Q9UKS7 whole entry, the tested form may be a part): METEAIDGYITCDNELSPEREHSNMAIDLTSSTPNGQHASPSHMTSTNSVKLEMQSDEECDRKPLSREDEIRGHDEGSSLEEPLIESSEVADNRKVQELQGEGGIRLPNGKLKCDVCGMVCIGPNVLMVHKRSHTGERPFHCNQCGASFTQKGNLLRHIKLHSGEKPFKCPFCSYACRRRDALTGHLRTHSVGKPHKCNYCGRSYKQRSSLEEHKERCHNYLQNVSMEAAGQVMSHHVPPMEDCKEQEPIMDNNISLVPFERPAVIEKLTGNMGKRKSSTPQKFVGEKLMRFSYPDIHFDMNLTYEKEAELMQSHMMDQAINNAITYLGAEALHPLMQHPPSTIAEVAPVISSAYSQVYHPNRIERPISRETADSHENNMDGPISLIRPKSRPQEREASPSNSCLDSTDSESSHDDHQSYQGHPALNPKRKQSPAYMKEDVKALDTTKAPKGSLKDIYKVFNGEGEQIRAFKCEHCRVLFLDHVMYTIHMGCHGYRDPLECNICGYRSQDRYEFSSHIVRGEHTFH
Chain of IKZF2 (Q96SW2 whole entry, the tested form may be a part): as the sequence (Q96SW2 whole entry) above
Chain of IKZF2 (Q16531 whole entry partner, the tested form may be a part): as the sequence (Q16531 whole entry partner) above

Structure (SMILES)	inhibition at 10 µM [1, 3] [%]	DC50 [1, 4] [nM]	DC50 [2] [µM]	inhibition at 10 µM [1, 5] [%]
O=C1CCC(N2Cc3cc(C4CCN(Cc5cnc[nH]5)CC4)ccc3C2=O)C(=O)N1 (stereo not drawn) [Compound I-120, 3-(5-(1-((1H-imidazol-5-yl)methyl)piperidin-4-yl)-1-oxoisoindolin-2-yl)piperidine-2,6-dione]	50	830	> 30	–
Nc1ncc(CN2CCC(c3ccc4c(c3)CN(C3CCC(=O)NC3=O)C4=O)CC2)cn1 (stereo not drawn) [Compound I-122, 3-(5-(1((2-aminopyrimidin-5-yl)methyl)piperidin-4-yl)-1-oxoisoindolin-2-yl)piperidine-2,6-dione]	70	76	> 30	–
Nc1ccc(CN2CCC(c3ccc4c(c3)CN(C3CCC(=O)NC3=O)C4=O)CC2)cn1 (stereo not drawn) [Compound I-123, 3-(5-(1-((6-aminopyridin-3-yl)methyl)piperidin-4-yl)-1-oxoisoindolin-2-yl)piperidine-2,6-dione]	75	69	> 30	–
Cn1ncc(CN2CCC(c3ccc4c(c3)CN(C3CCC(=O)NC3=O)C4=O)CC2)c1N (stereo not drawn) [Compound I-124, 3-(5-(1-((5-amino-1-methyl-1H-pyrazol-4-yl)methyl)piperidin-4-yl)-1-oxoisoindolin-2-yl)piperidine-2,6-dione]	40	9800	> 30	–
O=C1CCC(N2Cc3cc(C4CCN(Cc5cnc6cnccn56)CC4)ccc3C2=O)C(=O)N1 (stereo not drawn) [Compound I-126]	60	390	> 30	–
O=C1CCC(N2Cc3cc(C4CCN(Cc5cccc6ncnn56)CC4)ccc3C2=O)C(=O)N1 (stereo not drawn) [Compound I-127, 3-(5-(1-([1,2,4]triazolo[1,5-a]pyridin-5-ylmethyl)piperidin-4-yl)-1-oxoisoindolin-2-yl)piperidine-2,6-dione]	45	190	> 30	–
Cc1cn(C)c(CN2CCC(c3ccc4c(c3)CN(C3CCC(=O)NC3=O)C4=O)CC2)n1 (stereo not drawn) [Compound I-129, 3-(5-(1-((1,4-dimethyl-1H-imidazol-2-yl)methyl)piperidin-4-yl)-1-oxoisoindolin-2-yl)piperidine-2,6-dione]	40	190	> 30	–
O=C1CCC(N2Cc3cc(C4CCN(Cc5cnc6ncccn56)CC4)ccc3C2=O)C(=O)N1 (stereo not drawn) [Compound I-132, 3-(5-(1-(imidazo[1,2-a]pyrimidin-3-ylmethyl)piperidin-4-yl)-1-oxoisoindolin-2-yl)piperidine-2,6-dione]	60	1080	> 30	–
O=C1CCC(N2Cc3cc(C4CCN(Cc5cc(C6CC6)[nH]n5)CC4)ccc3C2=O)C(=O)N1 (stereo not drawn) [Compound I-146, 3-(5-(1-((5-cyclopropyl-1H-pyrazol-3-yl)methyl)piperidin-4-yl)-1-oxoisoindolin-2-yl)piperidine-2,6-dione]	60	170	> 30	–
O=C1CCC(N2Cc3cc(C4CCN(Cc5c[nH]nc5-c5cccnc5)CC4)ccc3C2=O)C(=O)N1 (stereo not drawn) [Compound I-151, 3-(1-oxo-5-(1-((3-(pyridin-3-yl)-1H-pyrazol-4-yl)methyl)piperidin-4-yl)isoindolin-2-yl)piperidine-2,6-dione]	60	95	> 30	–
O=C1CCC(N2Cc3cc(C4=CCN(Cc5ccccc5)CC4)ccc3C2=O)C(=O)N1 (stereo not drawn) [Compound I-172, 3-(5-(1-benzyl-1,2,3,6-tetrahydropyridin-4-yl)-1-oxoisoindolin-2-yl)piperidine-2,6-dione]	–	103	0.25	60
Cc1cccc(CN2CCC(c3ccc4c(c3)CN(C3CCC(=O)NC3=O)C4=O)CC2)c1 (stereo not drawn) [Compound I-173, 3-(5-(1-(3-methylbenzyl)piperidin-4-yl)-1-oxoisoindolin-2-yl)piperidine-2,6-dione]	–	74	> 30	65
CC1(C)CN(Cc2ccccc2)CCC1c1ccc2c(c1)CN(C1CCC(=O)NC1=O)C2=O (stereo not drawn) [Compound I-185, 3-(5-(1-benzyl-3,3-dimethylpiperidin-4-yl)-1-oxoisoindolin-2-yl)piperidine-2,6-dione]	20	> 30000	> 30	–
O=C1CCC(N2Cc3cc(C4=CCN(Cc5ccccc5)C4)ccc3C2=O)C(=O)N1 (stereo not drawn) [Compound I-191, 3-(5-(1-benzyl-2,5-dihydro-1H-pyrrol-3-yl)-1-oxoisoindolin-2-yl)piperidine-2,6-dione]	10	4200	> 30	–
O=C1CCC(N2Cc3cc(C4CCN(Cc5nc6ccccc6s5)CC4)ccc3C2=O)C(=O)N1 (stereo not drawn) [Compound I-200, 3-(5-(1-(benzo[d]thiazol-2-ylmethyl)piperidin-4-yl)-1-oxoisoindolin-2-yl)piperidine-2,6-dione]	35	67	> 30	–

Further compounds by falling DC50 [1, 4], results first:

inhibition at 10 µM [1, 3] [%]	DC50 [1, 4] [nM]	DC50 [2] [µM]	Structure (SMILES)	inhibition at 10 µM [1, 5] [%]
40	67	> 30	O=C1CCC(N2Cc3cc(C4CCN(CCC(F)(F)F)CC4)ccc3C2=O)C(=O)N1 (stereo not drawn) [Compound I-179, 3-(1-oxo-5-(1-(3,3,3-trifluoropropyl)piperidin-4-yl)isoindolin-2-yl)piperidine-2,6-dione]	–
50	67	> 30	CC1CN(Cc2ccccc2)CCC1c1ccc2c(c1)CN(C1CCC(=O)NC1=O)C2=O (stereo not drawn) [Compound I-187, 3-(5-(1-benzyl-3-methylpiperidin-4-yl)-1-oxoisoindolin-2-yl)piperidine-2,6-dione]	–
60	62	> 30	CCn1ccc(CN2CCC(c3ccc4c(c3)CN(C3CCC(=O)NC3=O)C4=O)CC2)n1 (stereo not drawn) [Compound I-121, 3-(5-(1-((1-ethyl-1H-pyrazol-3-yl)methyl)piperidin-4-yl)-1-oxoisoindolin-2-yl)piperidine-2,6-dione]	–
70	39	> 30	O=C1CCC(N2Cc3cc(C4CCN(Cc5c[nH]nc5-c5ccccc5)CC4)ccc3C2=O)C(=O)N1 (stereo not drawn) [Compound I-148, 3-(1-oxo-5-(1-((3-phenyl-1H-pyrazol-4-yl)methyl)piperidin-4-yl)isoindolin-2-yl)piperidine-2,6-dione]	–
80	19	> 30	O=C1CCC(N2Cc3cc(C4CCN(Cc5ccc6cc[nH]c6n5)CC4)ccc3C2=O)C(=O)N1 (stereo not drawn) [Compound I-140, 3-(5-(1-((1H-pyrrolo[2,3-b]pyridin-6-yl)methyl)piperidin-4-yl)-1-oxoisoindolin-2-yl)piperidine-2,6-dione]	–
80	9	> 30	O=C1CCC(N2Cc3cc(C4CCN(Cc5ccc6c(c5)NCCS6)CC4)ccc3C2=O)C(=O)N1 (stereo not drawn) [Compound I-141, 3-(5-(1-((3,4-dihydro-2H-benzo[b][1,4]thiazin-6-yl)methyl)piperidin-4-yl)-1-oxoisoindolin-2-yl)piperidine-2,6-dione]	–
50	5	> 50	O=C1CCC(N2Cc3cc(C4CCN(Cc5ccc6c(c5)CCCC6)CC4)ccc3C2=O)C(=O)N1 (stereo not drawn) [Compound I-175, 3-(1-oxo-5-(1-((5,6,7,8-tetrahydronaphthalen-2-yl)methyl)piperidin-4-yl)isoindolin-2-yl)piperidine-2,6-dione]	–
